Results: article PMC7281072 (Cancers, 2020)
Where two headings read alike, the source gives them in different places.

Assays:
pAKT = assay: Western immunoblotting densitometry, pAKT, SKOV-3 cells; format: cell-based, human; conditions: 25 μM; for ratio [pAKT]/[GAPDH] band intensity: SKOV-3 cells; for ratio [pAKT]/[GAPDH] band intensity, single blot (panel A): panel A lower set, cell line not given, control ratio 0.996
AKT1,2 phosphorylation = assay: AKT phosphorylation ELISA, OVCAR-3 cells; format: cell-based, human; conditions: for Vmax ± SE, pAKT 1/2 inhibition: Michaelis Menten model; for IC50: Homo sapiens, read-out: IC50, pAKT 1/2 inhibition
in vivo = conditions: both, CB17 SCID, mouse, ip

SMILES	ratio [pAKT]/[GAPDH] band intensity (pAKT; 15min, control ratio 0.98)	ratio [pAKT]/[GAPDH] band intensity (pAKT; 30min, control ratio 0.98)	ratio [pAKT]/[GAPDH] band intensity (pAKT; 1h, control ratio 1.02)	ratio [pAKT]/[GAPDH] band intensity (pAKT; 3h, control ratio 0.99)	ratio [pAKT]/[GAPDH] band intensity (pAKT; 12h, control ratio 0.94)	ratio [pAKT]/[GAPDH] band intensity, single blot (panel A) (pAKT; 1h)	ratio [pAKT]/[GAPDH] band intensity, single blot (panel A) (pAKT; 3h)	TGI (Total Growth Inhibition) (SK-OV-3 cancer cell line)	Vmax ± SE, pAKT 1/2 inhibition (AKT1,2 phosphorylation; 15 min)	Vmax ± SE, pAKT 1/2 inhibition (AKT1,2 phosphorylation; 30 min)	Vmax ± SE, pAKT 1/2 inhibition (AKT1,2 phosphorylation; 60 min)	IC50 (AKT1,2 phosphorylation; 0.25 h, 15 min)	IC50 (AKT1,2 phosphorylation; 0.5 h, 30 min)	IC50 (AKT1,2 phosphorylation; 1 h, 60 min)	LD50 (in vivo)
C[C@]12CC[C@H]3[C@@H](CCC4=CC(=O)NCC[C@@]43C)[C@@H]1CC[C@@H]2OC(=O)CCOc1ccc(N(CCCl)CCCl)cc1 [ENGA-L06E, 5a,7a-dimethyl-2-oxo-2,3,4,5,5a,5b,6,7,7a,8,9,10,10a,10b,11,12-hexa decahydrocyclopenta [5, 6] naphtho [1,2-d] azepin-8-yl 3-(4-(bis(2-chloroethyl)amino)phenoxy) propanoate]	0.94	0.78	0.73	0.65	0.58	0.40	0.20	52 ± 3.3 μΜ	57.71 ± 5.51	60.76 ± 2.97	62.20 ± 5.12	29.1 µM	24.4 µM	18.3 µM	–
C[C@]12CC[C@@H]3c4ccc(OC(=O)CCOc5ccc(N(CCCl)CCCl)cc5)cc4CC[C@H]3[C@@H]1CCC(=O)N2 [ENGA-L08E, 12a-methyl-2-oxo-1,2,3,4,4a,4b,5,6,10b,11,12,12a-dodecahydronaphtho[2,1-f]quinolin-8-yl 3-(4-(bis (2-chloroethyl)amino)phenoxy) propanoate]	1.04	0.66	0.63	0.52	0.50	0.22	0.20	76 ± 7.2 μΜ	65.97 ± 1.60	75.64 ± 0.99	78.39 ± 4.18	> 50 µM	12.8 µM	14.2 µM	95 mg/kg
